Numbers after ± are expanded uncertainties.
Assay: xn = mol fraction of the nth substance listed
Conditions: 101 kPa, Liquid

Clc1ccccc1 [chlorobenzene] + CCCO
mass density [kg/m3]
Conditions	288.15 K	293.15 K	298.15 K
x2 = 0	1111.81 ± 0.3	1106.43 ± 0.29	1101.04 ± 0.28
x2 = 0.0254	1105.92 ± 0.3	1100.51 ± 0.29	1095.1 ± 0.28
x2 = 0.0513	1100.01 ± 0.29	1094.6 ± 0.28	1089.18 ± 0.27
x2 = 0.0726	1095.18 ± 0.28	1089.77 ± 0.27	1084.35 ± 0.26
x2 = 0.0738	1094.9 ± 0.28	1089.49 ± 0.27	1084.07 ± 0.26
x2 = 0.1016	1088.48 ± 0.27	1083.08 ± 0.26	1077.66 ± 0.25
x2 = 0.1058	1087.51 ± 0.27	1082.11 ± 0.26	1076.69 ± 0.25
x2 = 0.1365	1080.3 ± 0.26	1074.91 ± 0.25	1069.5 ± 0.24
x2 = 0.2019	1064.7 ± 0.24	1059.35 ± 0.23	1053.96 ± 0.22
x2 = 0.2472	1053.55 ± 0.22	1048.23 ± 0.21	1042.89 ± 0.21
x2 = 0.2984	1040.5 ± 0.2	1035.23 ± 0.2	1029.94 ± 0.19
x2 = 0.3443	1028.6 ± 0.19	1023.38 ± 0.18	1018.13 ± 0.17
x2 = 0.4027	1012.95 ± 0.17	1007.78 ± 0.16	1002.6 ± 0.15
x2 = 0.4952	986.837 ± 0.17	981.797 ± 0.18	976.724 ± 0.19
x2 = 0.5492	970.777 ± 0.2	965.817 ± 0.2	960.824 ± 0.21
x2 = 0.5975	955.977 ± 0.22	951.086 ± 0.23	946.167 ± 0.24
x2 = 0.6447	940.98 ± 0.25	936.176 ± 0.25	931.338 ± 0.26
x2 = 0.699	923.003 ± 0.28	918.296 ± 0.28	913.559 ± 0.29
x2 = 0.7494	905.686 ± 0.3	901.079 ± 0.31	896.443 ± 0.32
x2 = 0.8008	887.239 ± 0.34	882.746 ± 0.34	878.223 ± 0.35
x2 = 0.8473	869.896 ± 0.36	865.508 ± 0.37	861.093 ± 0.38
x2 = 0.8955	851.18 ± 0.39	846.915 ± 0.4	842.621 ± 0.41
x2 = 0.9192	841.722 ± 0.41	837.516 ± 0.42	833.28 ± 0.42
x2 = 0.9497	829.134 ± 0.43	825.009 ± 0.44	820.857 ± 0.44

Reference: the NIST ThermoML archive (doi:10.1016/j.fluid.2007.09.028)
